Laboratory results: PMC10846744, “Cathelicidin peptide analogues inhibit EV71 infection through blocking viral entry and uncoating” (PLOS Pathogens, 2024)
Where no end group is shown, it is not given here.

Key:
Format in all cases: cell-based, enterovirus 71 (EV71)
[1] = system: NanoLuc-EV71 reporter virus / EV71 virus; test: NanoLuc-EV71 reporter virus luciferase and viral RNA time course; settings: 1.5 μM peptide pre-incubated with virus 1 hr, RD cells, luciferase at time points
Method: Fig 2 LL-18 and FF-18 inhibit EV71 infection at the early stages of infection. (A-B) NanoLuc-EV71 reporter virus (A) or EV71 virus (MOI = 1, B) was pre-incubated with 1.5 μM LL-18 or FF-18 for 1 hr before they were used to infect RD cells. Luciferase (A) or viral RNA (B) was determined at indicated time points. Viral RNAs were normalized to mock treated cells at 1 h.p.i. ***, P<0.001. (C-E) EV71 virus (MOI = 1) was either pre-incubated with 1.5 μM LL-18 before infection (-2 and -1 time points), added simultaneously with LL-18 (0 time point) or LL-18 was added at indicated time points post-infection (1, 2, 4, 7 time points) and viral VP1 expression (C), cell viability (D), or viral titer (E) was determined 24 h.p.i. ns, not significant; **, P<0.01; ***, P<0.001. (F-H) EV71 virus (MOI = 1) was either pre-incubated with 1.5 μM FF-18 before infection (-2 and -1 time points), added simultaneously with FF-18 (0 time point) or FF-18 was added at indicated time points post-infection (1, 2, 4, 7 time points) and viral VP1 expression (F), cell viability (G), or viral titer (H) was determined 24 h.p.i. ns, not significant; **, P<0.01; ***, P<0.001.
Full-length NanoLuc-EV71 reporter viruses and subgenomic EV71 replicon (SGR) were described previously. […] Nano luciferase and Renilla luciferase were measured with Nano-Glo or Renilla luciferase assay system from Promega (Madison, WI). […]

EV71 virus = test: Virus attachment assay (q-RT-PCR, immunoblotting); settings: 1.5 μM peptide (q-RT-PCR, MOI = 1) or 3 μM (immunoblotting, MOI = 10); RD cells 4°C 1 hr
Method: Fig 3 LL-18 and FF-18 inhibit viral attachment and internalization. (A) EV71 virus (MOI = 1) was pre-incubated with 1.5 μM LL-18, FF-18 or 12 μM 12s before they were used to incubate with RD cells at 4°C for 1 hr. Viral RNA was then determined with q-RT-PCR. Values are normalized to vehicle treated cells. ***, P<0.001. (B) EV71 virus (MOI = 1) was pre-incubated with 1.5 μM LL-18, FF-18 or 12 μM 12s before they were used to incubate with RD cells at 4°C for 1 hr followed by 37°C incubation for 1 hr. Viral RNA was then determined with q-RT-PCR. Values are normalized to vehicle treated cells. ***, P<0.001. (C) Diagram of EV71 subgenomic replicon. […] (D) RD cells transfected with EV71 SGR RNA were treated with 1.5 μM LL-18 or FF-18 for 3 hrs (left panel) or 6 hrs (right panel) before luciferase activity was measured. ns, not significant.
Viral binding and internalization assays were performed as previously described. […] Cells were then washed extensively with ice-cold PBS, and the viruses retained were analyzed with real-time PCR. […]
Supplementary file ppat.1011967.s002.tif: S2 Fig LL-18 and FF-18 inhibit viral attachment and internalization. […] Cells were then washed extensively and kept cultured for 24 hrs before viral VP1 expression was determined with immunoblotting. […] Cells were then washed extensively and kept cultured for 24 hrs before viral VP1 expression was determined with immunoblotting. […]

EV71 subgenomic replicon = EV71 subgenomic replicon (SGR) Renilla luciferase assay; settings: RD cells transfected with SGR RNA, 1.5 μM peptide for 3 or 6 hrs
Method: Fig 3 LL-18 and FF-18 inhibit viral attachment and internalization. (A) EV71 virus (MOI = 1) was pre-incubated with 1.5 μM LL-18, FF-18 or 12 μM 12s before they were used to incubate with RD cells at 4°C for 1 hr. Viral RNA was then determined with q-RT-PCR. Values are normalized to vehicle treated cells. ***, P<0.001. (B) EV71 virus (MOI = 1) was pre-incubated with 1.5 μM LL-18, FF-18 or 12 μM 12s before they were used to incubate with RD cells at 4°C for 1 hr followed by 37°C incubation for 1 hr. Viral RNA was then determined with q-RT-PCR. Values are normalized to vehicle treated cells. ***, P<0.001. (C) Diagram of EV71 subgenomic replicon. Part of the structural genes was replaced with a Renilla luciferase reporter gene. (D) RD cells transfected with EV71 SGR RNA were treated with 1.5 μM LL-18 or FF-18 for 3 hrs (left panel) or 6 hrs (right panel) before luciferase activity was measured. ns, not significant. […]
Full-length NanoLuc-EV71 reporter viruses and subgenomic EV71 replicon (SGR) were described previously. […] Nano luciferase and Renilla luciferase were measured with Nano-Glo or Renilla luciferase assay system from Promega (Madison, WI). Luminescence signals were measured using a BioTek Neo2 microplate reader.

## FRKSKEKIGKFFKRIVQRIFDFLRNLV [FF-18]
[1]
  inhibition of NanoLuc expression of NanoLuc-EV71 reporter virus: could inhibit the expression of NanoLuc as early as 4 hrs post-infection
EV71 virus
  inhibition of EV71 attachment: could effectively inhibit EV71 attachment
EV71 subgenomic replicon
  inhibition of EV71 SGR luciferase (viral translation or replication): no inhibition

## FRKSKEKIGKLFKRIVQRILDFLRNLV [LL-18]
[1]
  inhibition of NanoLuc expression of NanoLuc-EV71 reporter virus: could inhibit the expression of NanoLuc as early as 4 hrs post-infection
EV71 virus
  inhibition of EV71 attachment: could effectively inhibit EV71 attachment
EV71 subgenomic replicon
  inhibition of EV71 SGR luciferase (viral translation or replication): no inhibition
